Measurements reported in patent publication US12419305B2, “Antimicrobial compositions” (Firmenich SA, priority 2018, dated 2025).
Like-named read-outs stand apart in the source and are kept apart here.

Legend:
[1] = system: S. haemolyticus 114126; assay: BCT test (bacterial contact time), 120 s, log reduction / effect fraction; CI by Compusyn; type: cell-based; settings: Staphylococcus haemolyticus, 114126, 2 min, contact 120 s, 25% EtOH; for log reduction at 0.1 % strength: dose 0.1% w/v; for log reduction at 0.125 % strength: dose 0.125% w/v; for log reduction at 0.15 % strength: dose 0.15% w/v; for log reduction at 0.2 % strength: dose 0.2% w/v
Procedure, shortened: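 S. haemolyticus 114126 (skin isolate), grown to OD600 1-2 in BHI-TW80 and resuspended at 1-5×10^8 CFU/mL, was mixed 1:1 with ethanolic perfume compositions or ethanol alone for 45, 60 or 120 s. Viable counts came from serial-dilution regrowth (37 °C, turbidity OD600), giving log reduction versus ethanol control; CI was computed from concentration–effect fraction pairs.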

[2] = system: E. coli ATCC 10536; assay: BCT test (bacterial contact time), 45 s, log reduction / effect fraction; CI by Compusyn; type: cell-based, Escherichia coli; settings: for log reduction at 0.1 % strength: read-out: Log reduction
Procedure, shortened: (§1)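 Log-phase cultures (OD600 1-2) were resuspended in TSB at about 1×10^8 bacteria/mL and mixed 1:1 with ethanolic perfume combinations or single ingredients, five replicates each. After the stated contact time, serial dilutions were grown at 37° C and viable counts derived from OD600 turbidity; log reduction is versus ethanol control.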

[3] = system: S. aureus ATCC 6538; assay: BCT test (bacterial contact time), 60 s, log reduction / effect fraction; CI by Compusyn; type: cell-based, Staphylococcus aureus; settings: Staphylococcus aureus, ATCC6538, 1 min, in 25% EtOH; for log reduction at 0.05 % strength: dose 0.050 % w/v; for log reduction at 0.075 % strength: dose 0.075 % w/v
Procedure, shortened: as §1

[4] = system: Pseudomonas aeruginosa ATCC 15442; assay: as above; type: cell-based; settings: Pseudomonas aeruginosa, ATCC15442, 1 min, BCT 60 s, in 25% EtOH; for log reduction at 0.05 % strength: Dose 0.05 % w/v; for log reduction at 0.1 % strength: Dose 0.1 % w/v
Procedure, shortened: as §1

[5] = system: Salmonella enterica ATCC 10708; assay: as above; type: cell-based; settings: Salmonella enterica, ATCC10708, 1 min, BCT 60 s, in 25% EtOH; for log reduction at 0.04 % strength: Dose 0.04 % w/v; for log reduction at 0.05 % strength: Dose 0.05 % w/v; for log reduction at 0.05 % strength / log reduction at 0.1 % strength: read-out: Log reduction
Procedure, shortened: as §1

[6] = dose 0.150 % w/v, 60 s, read-out: Log reduction

## CCC(C)(O)CCCC(C)C (stereo not shown) [Tetralinol, 3,7-Dimethyl-3-octanol]
[1]; dose 0.075% w/v
  log reduction at 0.075 % strength: 1.2
[1]
  log reduction at 0.1 % strength: 5
  log reduction at 0.125 % strength: 7.3
  log reduction at 0.15 % strength: 7.1
[2]; Escherichia coli, ATCC10536, 45 s, dose 0.02 % w/v, 45 s, in 20% EtOH
  log reduction at 0.02 % strength: 0.1
[2]; Escherichia coli, ATCC10536, 45 s, dose 0.025 % w/v, 45 s, in 20% EtOH
  log reduction at 0.025 % strength: 0.6
[2]; Escherichia coli, ATCC10536, 45 s, dose 0.025% w/v, contact 45 s, 20% EtOH
  log reduction at 0.025 % strength: 0.7
[2]; Escherichia coli, ATCC10536, 45 s, dose 0.030 % w/v, 45 s, in 20% EtOH
  log reduction at 0.03 % strength: 1.4
[2]; Escherichia coli, ATCC10536, 45 s, dose 0.03% w/v, contact 45 s, 20% EtOH
  log reduction at 0.03 % strength: 2
[2]; Escherichia coli, ATCC10536, 45 s, dose 0.035 % w/v, 45 s, in 20% EtOH
  log reduction at 0.035 % strength: 5
[2]; Escherichia coli, ATCC10536, 45 s, dose 0.035% w/v, contact 45 s, 20% EtOH
  log reduction at 0.035 % strength: 5.9
[2]; Escherichia coli, ATCC10536, 45 s, dose 0.04% w/v, contact 45 s, 20% EtOH
  log reduction at 0.04 % strength: 7
[2]; dose 0.025 % w/v, 45 s, in 20% EtOH
  Log reduction: 0.6
[3]; dose 0.0375 % w/v, 60 s
  log reduction at 0.0375 % strength: 1.3
[3]; 60 s
  log reduction at 0.05 % strength: 5.5
  log reduction at 0.075 % strength: 7.3
[3]; dose 0.100 % w/v, 60 s
  log reduction at 0.1 % strength: 7.5
[4]; Dose 0.025 % w/v
  log reduction at 0.025 % strength: 1.2
[4]
  log reduction at 0.05 % strength: 3.2
  log reduction at 0.1 % strength: 7.1
[4]; Dose 0.075 % w/v
  log reduction at 0.075 % strength: 3.9
[4]; Dose 0.125 % w/v
  log reduction at 0.125 % strength: 7.1
[5]
  log reduction at 0.04 % strength: 5.3
  log reduction at 0.05 % strength: 6.2

## C=C(C)[C@@H]1CC=C(CO)CC1 [Perycorolle, (S)-(−)-(4-Isopropenyl-1-cyclohexenyl)methanol]
[1]
  log reduction at 0.1 % strength: -0.2
  log reduction at 0.125 % strength: 0.4
  log reduction at 0.15 % strength: 1.9
  log reduction at 0.2 % strength: 7.2
[1]; dose 0.175% w/v, read-out: Log reduction
  log reduction at 0.175 % strength: 6.4
[2]; Escherichia coli, ATCC10536, 45 s, dose 0.05% w/v, contact 45 s, 20% EtOH
  log reduction at 0.05 % strength: 0
[2]; Escherichia coli, ATCC10536, 45 s, dose 0.07% w/v, contact 45 s, 20% EtOH
  log reduction at 0.07 % strength: 1.2
[2]; Escherichia coli, ATCC10536, 45 s, dose 0.08% w/v, contact 45 s, 20% EtOH
  log reduction at 0.08 % strength: 3.7
[2]; Escherichia coli, ATCC10536, 45 s, dose 0.09% w/v, contact 45 s, 20% EtOH
  log reduction at 0.09 % strength: 6
[2]; Escherichia coli, ATCC10536, 45 s, dose 0.1% w/v, contact 45 s, 20% EtOH
  log reduction at 0.1 % strength: 7.4
[3]; 60 s
  log reduction at 0.05 % strength: 0.2
  log reduction at 0.075 % strength: 1.6
[3]; dose 0.100 % w/v, 60 s
  log reduction at 0.1 % strength: 5.1
[3]; dose 0.125 % w/v, 60 s
  log reduction at 0.125 % strength: 7.3
[3]; [6]
  log reduction at 0.15 % strength: 7.3
[4]
  log reduction at 0.05 % strength: 1.8
  log reduction at 0.1 % strength: 7.5
[4]; Dose 0.06 % w/v
  log reduction at 0.06 % strength: 3.7
[4]; Dose 0.07 % w/v
  log reduction at 0.07 % strength: 5.1
[4]; Dose 0.08 % w/v
  log reduction at 0.08 % strength: 7.1
[5]
  log reduction at 0.04 % strength: 0
  log reduction at 0.05 % strength: 0.3
[5]; Dose 0.06 % w/v
  log reduction at 0.06 % strength: 0.9
[5]; Dose 0.07 % w/v
  log reduction at 0.07 % strength: 2.2
[5]; Dose 0.080 % w/v
  log reduction at 0.08 % strength: 5.2

## C=CCc1ccc(O)c(OC)c1 [Eugenol F, 2-Methoxy-4-(prop-2-en-1-yl)phenol]
[1]
  log reduction at 0.2 % strength: 0.3
[1]; dose 0.25% w/v, read-out: Log reduction
  log reduction at 0.25 % strength: 2.37
[1]; dose 0.3% w/v, read-out: Log reduction
  log reduction at 0.3 % strength: 4.9
[1]; dose 0.35% w/v
  log reduction at 0.35 % strength: 7.6
[2]; Escherichia coli, ATCC10536, 45 s, dose 0.075 % w/v, 45 s, in 20% EtOH
  log reduction at 0.075 % strength: 0
[2]; Escherichia coli, ATCC10536, 45 s, dose 0.090 % w/v, 45 s, in 20% EtOH
  log reduction at 0.09 % strength: 0.3
[2]; Escherichia coli, ATCC10536, 45 s, dose 0.100 % w/v, 45 s, in 20% EtOH
  log reduction at 0.1 % strength: 0.9
[2]; Escherichia coli, ATCC10536, 45 s, dose 0.125 % w/v, 45 s, in 20% EtOH
  log reduction at 0.125 % strength: 2.5
[2]; Escherichia coli, ATCC10536, 45 s, dose 0.150 % w/v, 45 s, in 20% EtOH
  log reduction at 0.15 % strength: 7.4
[3]; Dose 0.1 % w/v, BCT 60 s
  log reduction at 0.1 % strength: 0.8
[3]; Dose 0.125 % w/v, BCT 60 s
  log reduction at 0.125 % strength: 1.6
[3]; Dose 0.15 % w/v, BCT 60 s, read-out: Log reduction
  log reduction at 0.15 % strength: 2.3
[3]; Dose 0.175 % w/v, BCT 60 s, read-out: Log reduction
  log reduction at 0.175 % strength: 5.5
[3]; dose 0.100 % w/v, 60 s
  log reduction at 0.1 % strength: 0.7
[3]; dose 0.125 % w/v, 60 s
  log reduction at 0.125 % strength: 1.5
[3]; dose 0.13 % w/v, 60 s
  log reduction at 0.13 % strength: 1.6
[3]; [6]
  log reduction at 0.15 % strength: 2.2
[3]; dose 0.175 % w/v, 60 s, read-out: Log reduction
  log reduction at 0.175 % strength: 4.6
[3]; dose 0.200 % w/v, 60 s, read-out: Log reduction
  log reduction at 0.2 % strength: 6.9
[4]; Dose 0.12 % w/v
  log reduction at 0.12 % strength: 2.4
[4]; Dose 0.14 % w/v
  log reduction at 0.14 % strength: 3.8
[4]; Dose 0.15 % w/v
  log reduction at 0.15 % strength: 7.5
[5]; Dose 0.075 % w/v
  log reduction at 0.075 % strength: 1
[5]; Dose 0.1 % w/v
  log reduction at 0.1 % strength: 2.4
[5]; Dose 0.10 % w/v
  log reduction at 0.1 % strength: 2
[5]; Dose 0.125 % w/v
  log reduction at 0.125 % strength: 4.4
[5]; Dose 0.15 % w/v
  log reduction at 0.15 % strength: 7.8
